Measurements taken from paper PMC9218685, “Legume Plant Peptides as Sources of Novel Antimicrobial Molecules Against Human Pathogens” (Frontiers in Molecular Biosciences, 2022).
Values after ≈ are worked out from the molar mass of the structure shown. Ends that are not written are not given here. Peptide text beside a SMILES is read from it.

Key:
Type in all cases: cell-based
[1] = tested on: Listeria monocytogenes (ATCC 19111); settings: for Activity against L. monocytogenes: 3 h, ~10^7 log phase bacteria, peptides ≤25 µM
Source text: (§1) The following pathogenic bacterial strains were used: The Gram-positive Enterococcus faecalis (ATCC 29212), Staphylococcus aureus (HNCMO112011), Listeria monocytogenes (ATCC 19111) and the Gram-negative Pseudomonas aeruginosa (ATCC 27853), Escherichia coli (ATCC 8739), Salmonella enterica (ATCC 13076), Klebsiella pneumoniae (NCTC 13440), Acinetobacter baumannii (ATCC 17978) obtained from the ATCC (United States) and NCTC (National Collection of Type Cultures–England). For the antifungal experiment the Candida albicans W01 strain ([Ördögh et al., 2014]) was used. Antimicrobial activities of peptides against ∼10^7 log phase bacteria were tested in Potassium-Phosphate Buffer (PPB, pH 7.4) as described by [Jenei et al. (2020)] while anti-Candida assays were done according to [Szerencsés et al. (2021)]. The two-fold dilution series of peptides ranged from 25 μM to 0.125 μM, while that of the antibiotics ampicillin (Merck) and miconazole (Duchefa Biochemie) from […] to 0.1 μM. The lowest concentration of the antimicrobial agents, which completely eliminated viable bacteria or C. albicans were considered as the minimal bactericidal concentration (MBC) and minimal fungicidal concentration (MFC).
(§2) The minimal bactericidal concentrations (MBCs) were determined after 3 h of treatment of ∼10^7 log phase bacteria with 2-fold serial dilution of peptides from 25 µM to 0.8 µM. Only 25 of the 50 cationic M. truncatula peptides had activity at ≤25 µM (Supplementary Table S1). […] Three peptides were only active against two bacterial strains; NCR649 against L. monocytogenes and A. baumannii, NCR281 against L. monocytogenes and P. aeruginosa and NCR350 against A. baumannii and P. aeruginosa. […] None of the anionic NCR peptides affected the survival of the tested bacterial strains.

[2] = tested on: Pseudomonas aeruginosa (ATCC 27853)
Source text: as §1, §2

[3] = tested on: E. coli, S. enteritidis, P. aeruginosa, L. monocytogenes, S. aureus, E. faecalis, K. pneumoniae and A. baumannii; assay: Antimicrobial activity assay, spectrum over the eight tested pathogenic bacteria; settings: 3 h treatment of ~10^7 log phase bacteria, peptides 25 to 0.8 µM; active = MBC ≤25 µM
Source text: as §1
We investigated the antimicrobial activity of 78 NCR peptides from M. truncatula and 12 NCRs from other IRLC legumes as well as their shorter derivatives against E. coli, S. enteritidis, P. aeruginosa, L. monocytogenes, S. aureus, E. faecalis, K. pneumoniae and A. baumannii (Supplementary Table S1). In the selection of the M. truncatula peptides, we considered their symbiotic expression levels but also their physicochemical properties. The antimicrobial activity of NCRs has so far been attributed to cationic peptides, with the exception of one anionic peptide. To investigate whether other anionic NCRs are antimicrobial, in addition to the cationic peptides, neutral and anionic NCRs were also included covering a broad range of peptides with different net charges (NC: from 7.8 to −10.2) and isoelectric points (pI: from 10.69 to 2.95). 50 peptides had positive net charge and pI > 7.0, while 28 peptides had negative net charge and pI < 7.0 (Supplementary Table S1A). Of the other legumes, only cationic NCR peptides were studied (Supplementary Table S1B).
as §2

[4] = tested on: Escherichia coli (ATCC 8739); settings: for MBC Escherichia coli: ATCC 8739, 3 h
Source text: as §1, §2

[5] = tested on: Acinetobacter baumannii (ATCC 17978); assay: microbe, parasite or virus in culture; settings: 3 h, ~10^7 log phase bacteria, peptides ≤25 µM
Source text: as §1, §2

[6] = 3 h, ~10^7 log phase bacteria, peptides ≤25 µM

Compound | Antibacterial spectrum over the eight tested bacterial strains [3] | MBC Escherichia coli [4] [µM] | also measured
CSCC[C@H](NC(=O)[C@H](CCCNC(=N)N)NC(=O)[C@@H](NC(=O)[C@H](Cc1c[nH]c2ccccc12)NC(=O)[C@H](CCCNC(=N)N)NC(=O)[C@H](CS)NC(=O)[C@H](CCC(=O)O)NC(=O)CNC(=O)[C@H](CCCCN)NC(=O)[C@@H](NC(=O)[C@H](CS)NC(=O)[C@H](CCCCN)NC(=O)[C@H](Cc1ccccc1)NC(=O)[C@H](CCCNC(=N)N)NC(=O)[C@H](CCCCN)NC(=O)[C@@H](NC(=O)[C@H](CCCNC(=N)N)NC(=O)[C@@H](NC(=O)[C@H](CO)NC(=O)[C@@H]1CCCN1C(=O)[C@@H]1CCCN1C(=O)[C@H](CS)NC(=O)[C@H](CC(=O)O)NC(=O)[C@H](C)NC(=O)[C@H](CC(=O)O)NC(=O)[C@@H](NC(=O)[C@H](CCC(=O)O)NC(=O)[C@H](CS)NC(=O)[C@H](CC(N)=O)NC(=O)[C@@H](NC(=O)[C@@H](N)Cc1ccc(O)cc1)C(C)C)[C@@H](C)O)[C@@H](C)O)C(C)C)C(C)C)[C@@H](C)O)C(=O)N[C@@H](CO)C(=O)N[C@@H](Cc1ccc(O)cc1)C(=O)N[C@@H](C)C(=O)O [NCR086] (H-YVNCETDADCPPSTRVKRFKCVKGECRWTRMSYA-OH; N-terminus assumed) |  |  | MBC Listeria monocytogenes ([1]; ATCC 19111, 3 h): 25 µM (≈ 100 µg/mL)
CC[C@H](C)[C@H](NC(=O)[C@H](CCCCN)NC(=O)[C@H](CC(=O)O)NC(=O)[C@@H]1CCCN1C(=O)[C@@H](N)Cc1ccccc1)C(=O)N[C@@H](Cc1ccccc1)C(=O)N[C@@H](Cc1ccccc1)C(=O)NCC(=O)N[C@@H](CC(=O)O)C(=O)N[C@@H](CS)C(=O)N[C@@H](CCC(N)=O)C(=O)N[C@H](C(=O)N[C@@H](CC(=O)O)C(=O)N[C@@H](CCCCN)C(=O)N[C@@H](CC(=O)O)C(=O)N[C@@H](CS)C(=O)N[C@@H](CCCCN)C(=O)N1CCC[C@H]1C(=O)N[C@@H](CCCCN)C(=O)N[C@@H](CCCNC(=N)N)C(=O)NCC(=O)N[C@H](C(=O)N[C@@H](CC(N)=O)C(=O)N[C@@H](Cc1ccccc1)C(=O)N[C@@H](CCCNC(=N)N)C(=O)N[C@@H](CS)C(=O)N[C@@H](CCCNC(=N)N)C(=O)N[C@@H](CCCCN)C(=O)NCC(=O)N[C@@H](CCCCN)C(=O)N[C@@H](CS)C(=O)N[C@@H](Cc1ccccc1)C(=O)N1CCC[C@H]1C(=O)N[C@H](C(=O)N[C@@H](CCCNC(=N)N)C(=O)O)C(C)C)C(C)C)[C@@H](C)O [MsNCR463] (H-FPDKIFFGDCQTDKDCKPKRGVNFRCRKGKCFPVR-OH; N-terminus assumed) | only effective against P. aeruginosa |  | Effective concentration (MBC) against P. aeruginosa ([2]; 3 h, ~10^7 log phase bacteria): 25 µM
GRYTTPWCVRDIDCPKEKCKHPFKPRCLTHSCVCRLWGSQDVI-OH (cysteines drawn unpaired) [NCR281] |  |  | Activity against L. monocytogenes [1]: active; Activity against P. aeruginosa [2, 6]: active
MKNGCKHTGHCPRKMCGAKTTKCRNNKCQCV [NCR192] | all active, with the exception of NCR192 |  | 
CC(C)[C@H](NC(=O)[C@H](CS)NC(=O)[C@@H](N)CCCCN)C(=O)N[C@@H](Cc1ccc(O)cc1)C(=O)N[C@H](C(=O)N1CCC[C@H]1C(=O)N[C@@H](CCCCN)C(=O)N[C@@H](CCCNC(=N)N)C(N)=O)[C@@H](C)O [GoNCR308 (23-30)] (H-KCVYTPKR-NH2) |  | 50 (≈ 49.7 µg/mL) | 
CC[C@H](C)[C@H](NC(=O)[C@@H]1CCCN1C(=O)[C@@H]1CCCN1C(=O)[C@@H](NC(=O)[C@H](CS)NC(=O)[C@@H](NC(=O)CNC(=O)[C@H](CCCCN)NC(=O)[C@H](CCCNC(=N)N)NC(=O)[C@H](CS)NC(=O)[C@H](CCCNC(=N)N)NC(=O)[C@H](Cc1ccccc1)NC(=O)[C@H](CC(N)=O)NC(=O)[C@H](C)NC(=O)CNC(=O)[C@H](Cc1ccc(O)cc1)NC(=O)[C@H](CC(C)C)NC(=O)[C@H](CCCCN)NC(=O)[C@@H]1CCCN1C(=O)[C@H](CS)NC(=O)[C@H](CC(=O)O)NC(=O)[C@H](CCCCN)NC(=O)[C@H](CC(=O)O)NC(=O)[C@H](CCCNC(=N)N)NC(=O)[C@H](CCCCN)NC(=O)[C@H](CS)NC(=O)[C@H](CO)NC(=O)[C@H](CO)NC(=O)[C@@H](NC(=O)[C@H](Cc1ccccc1)NC(=O)[C@@H](NC(=O)CNC(=O)[C@H](CC(C)C)NC(=O)[C@@H](N)Cc1ccccc1)[C@@H](C)O)[C@@H](C)CC)[C@@H](C)O)C(C)C)C(=O)O [NCR035] (H-FLGTFISSCKRDKDCPKLYGANFRCRKGTCVPPI-OH; N-terminus assumed) |  | 12.5 (≈ 47.8 µg/mL) | Activity against E. coli [4, 6]: only effective
CC(C)C[C@H](NC(=O)[C@H](CCCCN)NC(=O)[C@H](CC(C)C)NC(=O)[C@H](CS)NC(=O)[C@H](CCCCN)NC(=O)CNC(=O)[C@@H](N)Cc1ccccc1)C(=O)N[C@@H](CCCCN)C(N)=O [GoNCR308 (16-23)] (H-FGKCLKLK-NH2) |  | 25 (≈ 23.4 µg/mL) | MBC Pseudomonas aeruginosa ([2]; ATCC 27853, 3 h): 25 µM (≈ 23.4 µg/mL)
CC[C@H](C)[C@H](NC(=O)[C@@H]1CCCN1C(=O)[C@H](CO)NC(=O)[C@@H](N)CO)C(=O)N[C@@H](CCCNC(=N)N)C(=O)N[C@H](C(=O)N[C@H](C(=O)N[C@@H](CC(=O)O)C(=O)N[C@H](C(=O)N[C@@H](CO)C(=O)N[C@@H](CCCNC(=N)N)C(=O)N1CCC[C@H]1C(=O)N[C@@H](CS)C(=O)N[C@H](C(=O)N[C@H](C(=O)N[C@@H](CC(=O)O)C(=O)N[C@@H](CCCCN)C(=O)N[C@@H](CC(=O)O)C(=O)N[C@@H](CS)C(=O)N[C@@H](CO)C(=O)N[C@@H](CCCCN)C(=O)N[C@H](C(=O)N[C@@H](CCC(=O)O)C(=O)N[C@@H](Cc1ccc(O)cc1)C(=O)NCC(=O)N[C@@H](Cc1ccc(O)cc1)C(=O)N[C@@H](CCCCN)C(=O)N[C@@H](CC(C)C)C(=O)N[C@@H](CCCNC(=N)N)C(=O)N[C@@H](CS)C(=O)N[C@@H](CCCNC(=N)N)C(=O)N[C@@H](CCCCN)C(=O)NCC(=O)N[C@@H](CCCNC(=N)N)C(=O)N[C@@H](CS)C(=O)N[C@H](C(=O)N[C@@H](Cc1c[nH]cn1)C(=O)N[C@H](C(=O)N1CCC[C@H]1C(=O)N[C@@H](CCCNC(=N)N)C(=O)O)[C@@H](C)CC)C(C)C)C(C)C)[C@@H](C)O)[C@@H](C)O)C(C)C)[C@@H](C)O)C(C)C [NCR533] (H-SSPIRVTDVSRPCTTDKDCSKVEYGYKLRCRKGRCVHIPR-OH; N-terminus assumed) |  | 25 (≈ 115 µg/mL) | 
CC(C)C[C@H](NC(=O)[C@H](CS)NC(=O)[C@@H](NC(=O)[C@H](CS)NC(=O)[C@H](CCCCN)NC(=O)[C@@H](NC(=O)[C@@H](NC(=O)[C@H](CCC(=O)O)NC(=O)[C@@H]1CCCN1C(=O)[C@@H]1CCCN1C(=O)[C@@H](NC(=O)[C@H](CS)NC(=O)[C@H](CCCCN)NC(=O)[C@H](CC(C)C)NC(=O)[C@@H](NC(=O)[C@@H](N)CCCCN)C(C)C)[C@@H](C)O)C(C)C)C(C)C)[C@@H](C)O)C(=O)N[C@@H](CS)C(=O)NCC(=O)N[C@@H](CCCCN)C(=O)N[C@@H](CCCNC(=N)N)C(=O)N[C@H](C(=O)N[C@@H](CC(C)C)C(=O)N[C@@H](Cc1ccc(O)cc1)C(=O)O)[C@@H](C)O [NCR649] (H-KVLKCTPPEVVKCTCLCGKRTLY-OH; N-terminus assumed) |  |  | Activity against L. monocytogenes [1]: active; Activity against A. baumannii [5]: active
AYYECSNDSACQATTKCVLPRVPRCIKYKCLCGNSNGSGNRWSTRPNRIQKGSTESNYF-OH (cysteines drawn unpaired) [NCR384] | able to kill all tested bacteria except E. faecalis and K. pneumoniae |  | 
KCYQDSDCPKDMCSFLFKPKCIFTRYFPIYLGGICGCDRKTCP-OH (cysteines drawn unpaired) [NCR645] | kill all bacteria except E. faecalis |  | 
